In patent US10512670B2, “Pharmaceutical composition for preventing or treating hair loss comprising chemokine (C-X-C motif) ligand 1 (CXCL1) protein or CXCL1 protein and minoxidil as active ingredient” (SCM LIFESCIENCE CO., LTD., priority 2016, dated 2019):

What was measured:
[1] = test system: C3H/HeN mouse; assay: hair generation test in hair-removed mouse, application of minoxidil and CXCL1 protein to back skin; type: in vivo; conditions: applied to back skin for 14 days (FIG. 5); PBS-alone 20 mg
Protocol: In addition, in the case of combining and using the minoxidil and the CXCL1 protein which were commercialized as a hair generation agent, an experiment for verifying whether the hair generation effect may be better was performed. First, for an experiment for hair regeneration, long hair of a 7-week-old C3H/HeN mouse and the like was shortly cut by using a hair cutting machine and thereafter, the hair was completely removed by using a hair removal agent. After the hair-removed mouse was stabilized for one day, a recombinant protein CXCL1 was mixed with 2% minoxidil (Women's Rogaine, Johnson & Johnson Healthcare Products, USA) to be 1 μg/ml and 10 μg/ml, respectively. The mixture of the minoxidil and the CXCL1 protein was applied to the back skin of the hair-removed mouse for 14 days by […] per day. As a control, a PBS-alone applied group and a 2% minoxidil-alone treated group were set. The hair generation in the back of the mouse was tracked and observed for 14 days and newly generated hair was obtained again and the weight was measured, and the result was illustrated in FIGS. 4 and 5.

[2] = test system: human dermal papilla cell (DPC); assay: human dermal papilla cell (DPC) proliferation test; type: cell-based; conditions: 1 ng/ml or 5 ng/ml treated to DPC, 40 hrs, compared to cells without CXCL1 protein (FIG. 1)
Protocol: A human dermal papilla cell (DPC) proliferation test which is a representative in vitro cell test system for measuring hair proliferation was performed. 1 ng/ml or 5 ng/ml of the CXCL1 protein in Example 1 was treated to DPC, proliferation for 40 hrs was measured, and the result was illustrated in FIG. 1.

[3] = test system: C3H/HeN mouse; assay: hair generation test in hair-removed mouse, subcutaneous injection of CXCL1 protein; type: in vivo
Protocol: For a test for verifying a hair generation effect, the back of a 7-week-old C3H/HeN mouse was stabilized by removing hair by using a hair removal agent. After one day, 100 ng/ml of a human chemokine (C-X-C motif) ligand 1 (CXCL1) (SEQ ID NO:1) protein was subcutaneously injected to the back once. As a control, phosphate buffered saline (PBS) including 0.1% BSA at the same volume lysed with the CXCL1 protein was subcutaneously injected. Thereafter, the hair generation of the back of the hair-removed mouse was traced and observed for 15 days. A photograph of tracing and observing the back of the mouse with hair generation was illustrated in FIG. 2.
Further, after 15 days, the hair of the back of the mouse with newly hair generation was removed by using a knife and then the result of measuring the weight of the obtained hair was illustrated in FIG. 3.

Molecule	amount of newly generated hair [1]	cell proliferation [2]	hair weight ([3]; 100 ng/ml subcutaneously injected once, newly generated hair after 15 days (FIG. 3), control 40 mg)	hair generation of the back (photograph) ([3]; 100 ng/ml subcutaneously injected to the back once, observed for 15 days, compared with control (FIG. 2))	new hair relative to PBS-administered group ([3]; CXCL1 protein-alone administration)
Nc1cc(N2CCCCC2)nc(N)[n+]1[O-] [minoxidil]	about 30 mg	–	–	–	–
chemokine (C-X-C motif) ligand 1 (CXCL1) [CXCL1 protein]	–	cell proliferation was increased	80 mg	hair generation was more excellent	about two times greater
